Assay results reported in patent US20030139372A1, “Modulation of bone formation” (priority 2000, published 2003).
Entries after “also recorded” stand apart in the source; their conditions may differ.

Legend:
bone forming cells = assay: Bone anabolic activity from CFU-f and NASP cell assays combined with neonatal rat calvarial organ cultures; assay type: cell-based; conditions: for bone anabolic activity: useful activity taken as equivalent to that of PGE2
Excerpt: The main reason for the lack of understanding of the cellular basis for the actions of bone anabolic drugs is that there exists, at present, no single in vitro assay which responds to these drugs in an appropriate manner. However, we have now developed a number of assays which, when used in combination with neonatal rat calvarial organ cultures, are able to predict bone anabolic agents.
In the accompanying Figures, which are purely illustrative and not limiting on the present invention, the effect of certain compounds is shown on alkaline phosphatase activity, calcium uptake and collagen synthesis, respectively, with the final bar showing the cumulative and determinative effect of the compound on bone anabolism:
As noted above, there is no single assay that can reliably report on bone anabolic activity. Individual assays can identify certain putative bone anabolic agents but as there are many bone anabolic agents which act by a number of mechanisms, many remain unidentified. By using the CFU-f and the NASP cell assays in combination with neonatal rat calvarial organ cultures, bone anabolic agents can be reliably identified as the false negatives are reduced to a minimum.

[1] = system: whole bone marrow cells (BMC); assay: Fibroblastic colony forming unit (CFU-f) cultures of whole bone marrow cells; assay type: cell-based, rat; conditions: for colony numbers: CFU-f colonies
Description: Whole bone marrow cells (BMC's) were obtained from the tibias and femurs of 125 g male Wistar rats. The bones were removed under aseptic conditions and all soft adherent tissue removed. An end of each bone was removed, a hole made in the opposing end with an 18 gauge syringe needle, and the cells isolated centrifugally [Dobson K. R., et al., Calcif tissue Int., 65:411-413 (1999)]. The cells were dispersed in 10 ml DMEM (containing 12% FCS, 1×10^−8 M dexamethasone and […] ascorbic acid) by repeated pipetting, and a single-cell suspension achieved by forcefully expelling the cells through a 20 gauge syringe needle. The cells were then used in the protocols described below. To analyse the numbers of fibroblastic-colony forming units (CFU-f) in either whole BMC or high density non-adherent stromal precursor (NASP) cell cultures, 10^6 nucleated BMC, or the non-adherent cells from the high density NASP cellcultures, were plated out on 55 cm^2 petri dishes in DMEM containing; 12% FCS, 1×10^−8 M dexamethasone and 50 μg/ml ascorbic acid. In the case of the CFU-f analysis of whole BMC, the test agents were added once at the beginning of the culture period. In the case of NASP cell cultures, the test agents were added at the beginning of the NASP cell cultures themselves and the CFU-f assay only used to assess the number of CFU-f generated during the NASP cell culture. The medium was changed after 5 days and, thereafter, twice weekly. The cultures were maintained for 18 days, after which the cells were washed with PBS and fixed, by the addition of cold ethanol. After fixation, the cultures were stained for alkaline phosphatase (APase) positive, calcium positive, collagen positive and total colonies as described by Scutt & Bertram (J. Bone and Mineral Res. 10:474-489, 1995). The cultures were then photographed using a digital camera and the APase positive, calcium positive, collagen positive and total colonies quantitated using Bioimage “Intelligent Quantifier” image analysis software [Dobson K., et al., A cost effective method for the automatic quantitative analysis of fibroblastic-colony forming units with osteoblastic potential. Calcif. Tissue Int. 65:166-172 (1999)].

[2] = system: non-adherent stromal precursor (NASP) cells; assay: High-density non-adherent stromal precursor (NASP) cell cultures; assay type: cell-based, rat; conditions: 4 day NASP culture then CFU-f readout; FIG. 1
Description: Whole bone marrow cells (BMC's) were obtained from the tibias and femurs of 125 g male Wistar rats. The bones were removed under aseptic conditions and all soft adherent tissue removed. An end of each bone was removed, a hole made in the opposing end with an 18 gauge syringe needle, and the cells isolated centrifugally [Dobson K. R., et al., Calcif tissue Int., 65:411-413 (1999)]. The cells were dispersed in 10 ml DMEM (containing 12% FCS, 1×10^−8 M dexamethasone and […] ascorbic acid) by repeated pipetting, and a single-cell suspension achieved by forcefully expelling the cells through a 20 gauge syringe needle. The cells were then used in the protocols described below. […]
After fixation, the cultures were stained for alkaline phosphatase (APase) positive, calcium positive, collagen positive and total colonies as described by Scutt & Bertram (J. Bone and Mineral Res. 10:474-489, 1995). The cultures were then photographed using a digital camera and the APase positive, calcium positive, collagen positive and total colonies quantitated using Bioimage “Intelligent Quantifier” image analysis software [Dobson K., et al., A cost effective method for the automatic quantitative analysis of fibroblastic-colony forming units with osteoblastic potential. […]

neonatal rat calvariae = assay: Collagen synthesis in organ culture of neonatal rat calvariae; assay type: cell-based; conditions: [3H]proline incorporation into collagenase-digestible protein; FIG. 1
Description: One day old rat pups were killed and the calvariae (skull cases) dissected out. The calvariae were then cut along the sagittal suture to give two hemicalvariae per foetus. Each bone was cultured in 2 ml DMEM containing 1 mg/ml BSA, 50 μg/ml ascorbic acid, 60 μg/ml penicillin, and 50 μg/ml streptomycin and 1×10^−8M dexamethasone in 35 mm tissue culture wells. After 24 h, the medium was replaced with fresh medium, any test agent added, and the tissue cultured for a further 48 h.
In this assay, each bone was pulsed with 10 μCi of [^3H]proline for 24 h at the end of the culture period. The bones were washed successively in trichloroacetic acid (TCA), acetone, and ether, and then dried. The incorporation of [^3H]proline into collagenase-digestible protein (CDP) was determined using purified bacterial collagenase by the method of Peterkofsky B. and Diegelmann R. (Biochemistry, 6: 988-994, 1971) and expressed as dpm.

Row | Structure (SMILES) | bone anabolic activity (bone forming cells) | colony numbers [1] | further results
1 | c1cc2c(cc1[C@H]1OC[C@H]3[C@@H]1CO[C@@H]3c1ccc3c(c1)OCO3)OCO2 [sesamin] | useful activity |  | 
2 | CCCCCCCC/C=C\CCCCCCCC(=O)O [oleic acid] | useful activity |  | 
3 | CC#CCC(C)[C@H](O)/C=C/[C@@H]1[C@H]2C/C(=C/CCCC(=O)O)C[C@H]2C[C@H]1O (some centres unmarked) [iloprost] |  | stimulation comparable with that of PGA1 | 
4 | CCCCC[C@H](O)/C=C/[C@H]1C=CC(=O)[C@@H]1CCCCCCC(=O)O [PGA1] |  | significant dose dependent increase | bone anabolic activity compared with PGE2 (bone forming cells; magnitude relative to PGE2): comparable with that produced by PGE2; also recorded: at least as good as that of PGE2; response in CFU-f assay ([1]; whole BMC, 18 day culture, FIG. 1): positive response; response in NASP cell assay [2]: positive response; response in calvarial collagen synthesis assay (neonatal rat calvariae): positive response
5 | CCCCC/C=C\C/C=C\CCCCCCCC(=O)O [Linoleic acid, linoleic acid] | showed bone anabolic activity |  | 
6 | CCCCC[C@H](O)/C=C/[C@H]1C=CC(=O)[C@@H]1C/C=C\CCCC(=O)O [PGA2] | useful activity |  | 
7 | CCCCCCCCCCCCCCCC(=O)OC [Methyl palmitate, methyl palmitate] |  | produced stimulation | 
